Test results: article PMC10265664, “Peptide Antibiotic–Polyphosphate Nanoparticles: A Promising Strategy to Overcome the Enzymatic and Mucus Barrier of the Intestine” (Biomacromolecules, 2023)
Read-outs that look alike come from different tables or passages of the source.

What was measured:
[1] = cited from earlier work
Text: The ionic strength of the polycation plays also an important role in the formation of such particles. […] PMB–PP NPs could therefore be formed.

[2] = test system: lipase from porcine pancreas; experiment: Degradation study with lipase; assay type: in vitro ADME; details: porcine pancreatic lipase, 37 °C, sampling 0-24 h, absorbance 210 nm, mean n = 3
Method: Enzymatic degradation of free PMB and PMB being incorporated into NPs was evaluated with lipase. Lipase solution was prepared by dissolving 0.5 g of the enzyme in 10 mL of digestion medium (2 mM Tris buffer with 5 mM CaCl2 and 150 mM NaCl). After homogenization for 10 min, the enzyme mixture was centrifuged at 12,000 rpm (Sigma 3-18KS, Austria) for 15 min at 4 °C.[17] Thereafter, 2 mL of the supernatant liquid was added to 4 mL of 0.01% (m/v) PMB–PP NPs suspension and incubated at 37 °C under constant shaking using a ThermoMixer (Eppendorf, Hamburg, Germany). Aliquots of 100 μL were withdrawn at predetermined time points (0, 1, 2, 4, 6, 12, and 24 h) and transferred to a 96-well microplate (μClear 96-well plates, Greiner bio-one, Austria). PMB–PP NPs and PMB suspension without lipase served as negative control and were incubated under the same conditions. […] The same settings were applied for PMB. The PMB concentration was determined using a calibration curve with increasing concentrations of PMB ranging from 0.78 to 50 μM.
Degradation was evaluated by quantifying the % remaining amount of PMB by the following equation: [drawing 3]

[3] = test system: 50 multidrug-resistant Gram-negative bacterial strains; design: method as in PMID 33045992; details: cited from earlier work

For Polymyxin B sulfate [PMB], the isoelectric point [1] is listed as 10.74, the “PMB degraded after lipase exposure” value [2] is listed as 39.32% and the “MICs (minimum inhibitory concentrations)” value ([3]; 44 of 50 multidrug-resistant Gram-negative bacterial strains) is listed as at least 4 µg/mL. The “MICs (minimum inhibitory concentrations)” value ([3]; the other 6 of 50 multidrug-resistant Gram-negative bacterial strains) was 2 µg/mL.
